Assays:
[1] = tested on: female C57BL/6 adolescent mice; conditions: topical calcitriol; cited from earlier work
HEKa cells [2] = experiment: Keratinocyte growth with calcitriol titration; type: cell-based, human; conditions: titration 0.008-2.0 μg/mL
Experimental: All experiments were conducted in 96-well plate format. Each well contained the same amount of HEKa cells in about 100 μL of media (usually between 2,000-5,000 cell/well). Calcitriol was dissolved in ethanol to make a stock solution. The stock solution was serially diluted 1:2 in the growth media, covering a range of between 4.0 μg/mL to about 15.5 ng/mL (9 test concentrations). […] All experiments were conducted in duplicates.

[3] = Quantification of calcitriol in ex vivo porcine skin layers; parameters: species or system minipig
Source text: The skin sections were weighed and the weight recorded.

MIAC51 = experiment: Cure / survival rate of chloroleukemic rats after chemotherapy; type: in vivo, rat; conditions: for Cured (number of rats): of 40
Experimental: On day 5 after birth all rats received 1×105 MIAC51 intraperitoneally in 0.1 mL of serum free (SF) RPMI. MIAC51 were cultured in RPMI 1640 supplemented with L-glutamine and 10% fetal bovine serum at […] in a 5% CO2, 100% humidity incubator. Cells were grown to 50% confluency (1.5×106 mL) collected in 50 mL conical tubes, centrifuged at 600 g for 10 minutes at room temperature and resuspended in SF-RPMI at a concentration of 1×10^6/mL prior to injection.

HEKa cells [4] = experiment: Real-time PCR Neuroscience and Ion Channels array, calcitriol-treated HEKa; type: cell-based, human; conditions: 0.1 μg/mL; for KCNB2 mRNA regulation pattern: full cell: upregulated until 24 hours
Experimental: Changes in mRNA levels were evaluated using real-time PCR quantification to assess mRNA levels in preselected subsets containing 80 pathway specific targets (see Appendix). The PCR array analysis utilized two groups of genes—those related to Heat Shock Proteins (SABiosciences), and those related to Neuroscience Ion Channels and Transporters (SABioscience). Cell culture: Primary human epidermal keratinocytes (HEKa) were maintained in Epilife Medium (Cascade Biologics, Inc., Portland Oreg.) along with Human Keratinocyte Growth Supplement (Cascade Biologics, Inc., Portland Oreg.). […] D3 treatment of HEKa cells: […] Vehicle control group of cells were treated with 5 mL media containing 1 μL of ethanol. Cells were harvested 3, 6, 16, 24, 48, or 72 hours after the start of the treatment. RNA isolation: Cells were lysed for RNA isolation at different treatment times using the RNeasy Mini kit (Qiagen, Inc., Valencia Calif.) following the manufacturer's instructions. RNA was quantified by measuring optical density at 260 nm. First Strand Synthesis: […] Real-time PCR: Products from the first strand synthesis were diluted with water, mixed with the SYBR green master mix (SABiosciences., Frederick Md.) and loaded onto PCR arrays. Real time PCR was run on the PCR Arrays (Heat Shock Protein Arrays, and Neuroscience and Ion Channel Arrays) (SABiosciences, Frederick Md.) on a Biorad CFX96. Data analyses were performed using the PCR array data analysis software available on the SABiosciences website.

PC-3 = experiment: Cell growth / viability assay; type: cell-based; conditions: 0.1 μg/mL calcitriol for two passages
Experimental: In these experiments, a selected commercial drug was serially diluted, starting at a concentration 4-times higher than the final desired concentration for cell incubation. […] The drug treatment period was usually three days. At the end of the three days, the background OD of the 96-well plate was read at 280 nm, before 20 μL of the “Substrate Cell Titer 96 Aqueous One Solution Reagent” (Promega) was added to each well. […] The net OD increase was calculated by subtracting the pre-substrate OD reading. The impact of the drug on the cells was calculated by comparing the OD at different concentrations in relation to the OD of the control wells (without the drug). The results of the Net OD as a function of drug concentration was plotted and used to determine ED50 values. […] Then these pretreated cells were utilized to set up the cell based assay.

NIH-3T3 = experiment: Cell growth / viability assay; type: cell-based
HepG2 = experiment: Cell growth / viability assay; type: cell-based
scalp hair follicles = experiment: Rat model, duration of calcitriol treatment before chemotherapy; type: in vivo
Source text: While not wishing to be bound by any particular theory, it is believed that application of vitamin D to the scalp or any other area of skin having hair induces differentiation of hair follicles, which is required for the stage conversion of the hair from a growing anagen stage to an involuting catagen stage. […] In humans, a hair follicle of the scalp has a substantially longer anagen phase than that of animals. Indeed, at any time, at least 90% of hair follicles in a human scalp are in the anagen phase. It is believed that a short treatment duration is not sufficient to induce catagen stage in scalp hair follicles, which subsequently makes them more susceptible to cytotoxicity of chemotherapy. […] Continued application on a daily basis will ensure the maintenance of the catagen stage and extended protection throughout administration of multiple doses of a chemotherapeutic (e.g., taxane-containing) regimen.

[5] = Female Minipigs, 10 μg/mL, mean ± SD
[6] = Female Minipigs, 30 μg/mL, mean ± SD
[7] = Male Minipig (1 animal), 100 μg/mL, mean ± SD
[8] = Male Minipigs, 3 μg/mL, mean ± SD
[9] = Male Minipigs, 10 μg/mL, mean ± SD
[10] = Male Minipigs, 30 μg/mL, mean ± SD
[11] = ADM + paclitaxel + etoposide, after two rounds
[12] = CTX + ADM + ARA-C, after two rounds
[13] = CTX + paclitaxel + etoposide, after two rounds
[14] = CTX, after two rounds of chemotherapy

In the case of `C=C1/C(=C\C=C2/CCC[C@]3(C)[C@@H]([C@H](C)CCCC(C)(C)O)CC[C@@H]23)C[C@@H](O)C[C@@H]1O` [Calcitriol, (1a.3B.5Z.7E)-9,10-secocholesta-5,7,10(19)-triene-1,3,25-triol], the “prevention of cyclophosphamide-induced alopecia” value [1] is listed as “failed to demonstrate efficacy”, the “regrowth of pigmented hair shafts” value [1] is listed as “significantly accelerated, enhanced, and quantitatively improved” and the “stimulation of HEKa cell growth” value (HEKa cells [2]; lowest levels of calcitriol) is listed as 10-20%. For the same compound, the “calcitriol concentration at which cell growth is inhibited” value (HEKa cells [2]) was at least 1.0 µg/mL, the “Stratum Corneum calcitriol recovered” value ([3]; Female Minipigs, 1 μg/mL, mean ± SD) was 0.76 ± 1.3 (3) ng/cm^2 and the Dermis calcitriol recovered ([3]; Female Minipigs, 1 μg/mL, zero = below Lower Limit of Detection) was 0 ± 0 (3) ng/mg. For the same compound, the “Stratum Corneum calcitriol recovered” value ([3]; Female Minipigs, 3 μg/mL, mean ± SD) was 1.12 ± 1.49 (3) ng/cm^2, the Dermis calcitriol recovered ([3]; Female Minipigs, 3 μg/mL, zero = below Lower Limit of Detection) was 0 ± 0 (3) ng/mg and the Epidermis calcitriol recovered [3, 5] was 0.02 ± 0.04 (3) ng/mg. The “Stratum Corneum calcitriol recovered” value [3, 5] was 1.65 ± 1.80 (3) ng/cm^2, the Dermis calcitriol recovered ([3]; Female Minipigs, 10 μg/mL, zero = below Lower Limit of Detection) was 0.0 ± 0.0 (3) ng/mg and the Epidermis calcitriol recovered [3, 6] was 0.34 ± 0.24 (3) ng/mg. The “Stratum Corneum calcitriol recovered” value [3, 6] was 20.2 ± 11.7 (3) ng/cm^2, the Dermis calcitriol recovered ([3]; Female Minipigs, 30 μg/mL, zero = below Lower Limit of Detection) was 0.0 ± 0.0 (3) ng/mg and the Dermis calcitriol recovered [3, 7] was 0.13 ± 0.04 (1) ng/mg. For the same compound, the Epidermis calcitriol recovered [3, 7] was 2.09 ± 1.0 (1) ng/mg, the “Stratum Corneum calcitriol recovered” value [3, 7] was 118.1 ± 11.4 (1) ng/cm^2 and the Epidermis calcitriol recovered ([3]; Male Minipigs, 1 μg/mL, mean ± SD) was 0.16 ± 0.28 (3) ng/mg. The “Stratum Corneum calcitriol recovered” value ([3]; Male Minipigs, 1 μg/mL, twice daily 7 days, mean ± SD) was 56.1 ± 17.4 (3) ng/cm^2, the Dermis calcitriol recovered ([3]; Male Minipigs, 1 μg/mL, zero = below Lower Limit of Detection) was 0.0 ± 0.0 (3) ng/mg and the Epidermis calcitriol recovered [3, 8] was 0.14 ± 0.23 (3) ng/mg. The “Stratum Corneum calcitriol recovered” value [3, 8] was 62.4 ± 7.91 (3) ng/cm^2, the Dermis calcitriol recovered ([3]; Male Minipigs, 3 μg/mL, zero = below Lower Limit of Detection) was 0.0 ± 0.0 (3) ng/mg and the Epidermis calcitriol recovered [3, 9] was 0.23 ± 0.20 (3) ng/mg. For the same compound, the “Stratum Corneum calcitriol recovered” value [3, 9] was 59.6 ± 14.1 (3) ng/cm^2, the Dermis calcitriol recovered ([3]; Male Minipigs, 10 μg/mL, zero = below Lower Limit of Detection) was 0.0 ± 0.0 (3) ng/mg and the Epidermis calcitriol recovered [3, 10] was 0.38 ± 0.33 (3) ng/mg. The “Stratum Corneum calcitriol recovered” value [3, 10] was 54.6 ± 32.5 (3) ng/cm^2, the Dermis calcitriol recovered ([3]; Male Minipigs, 30 μg/mL, zero = below Lower Limit of Detection) was 0.0 ± 0.0 (3) ng/mg and the “% cured / survival rate” value (MIAC51; [11]) was 80%. The “Cured (number of rats)” value (MIAC51; [11]) was 32, the “% cured / survival rate” value (MIAC51; [12]) was 78% and the “Cured (number of rats)” value (MIAC51; [12]) was 31. For the same compound, the “% cured / survival rate” value (MIAC51; CTX + ADM, after two rounds) was 50%, the “Cured (number of rats)” value (MIAC51; CTX + ADM, after two rounds) was 20 and the “% cured / survival rate” value (MIAC51; [13]) was 83%. For the same compound, the “Cured (number of rats)” value (MIAC51; [13]) was 33, the “% cured / survival rate” value (MIAC51; [14]) was 25% and the “Cured (number of rats)” value (MIAC51; [14]) was 10. For the same compound, the “effect on efficacy of the chemotherapy agents” value (MIAC51; calcitriol 2 μg/mL) was “did not affect the efficacy of the chemotherapy agents”, the “SLC1A3 mRNA regulation pattern” value (HEKa cells [4]; full cell: downregulated at 48 hours) was “downregulated” and the “SLC1A1 mRNA regulation pattern” value (HEKa cells [4]; full cell: upregulated at 16 hrs) was “upregulated”. For the same compound, the “KCNN4 mRNA regulation pattern” value (HEKa cells [4]; full cell: upregulated at 48 hours) was “upregulated”, the “KCNB2 mRNA regulation pattern” value (HEKa cells [4]) was “upregulated at about 24 hours” and the “KCNB2 mRNA regulation pattern” value (HEKa cells [4]; listed as Vitamin D3) was “upregulated”. The “response to doxorubicin, cisplatin, erlotinib after calcitriol exposure” value (PC-3) was “did not alter”, the “effect of calcitriol on cell growth” value (NIH-3T3) was “no significant growth promoting or growth inhibiting effects” and the “effect of calcitriol on cytotoxic effect of Doxorubicin” value (NIH-3T3) was “did not appear to appreciably alter”. For the same compound, the “effect of calcitriol on cytotoxic effect of Doxorubicin” value (HepG2) was “did not appear to appreciably alter”, the “response to doxorubicin, cisplatin, erlotinib after calcitriol exposure” value (HepG2; 0.1 μg/mL calcitriol for two passages) was “did not alter” and the “5-FU ED50 curve with vs without calcitriol” value (HepG2; 0.1 μg/mL calcitriol supplement) was “not significantly different”. For the same compound, the “concentrations giving growth inhibition” value (HepG2; high concentrations) was over 0.5 µg/mL, the “concentrations giving growth stimulation” value (HepG2; low concentrations) was 0.05 to 0.25 µg/mL and the “daily application before chemotherapy required to see any protective effect” value (scalp hair follicles) was “at least four days”. The “protection with 5 days of application before chemotherapy” value (scalp hair follicles; increasing protection up to one week) was “moderate protection”.

From US20220023317A1, “PREVENTING OR MITIGATING CHEMOTHERAPY INDUCED ALOPECIA USING VITAMIN D” (Berg LLC, priority 2013, published 2022)
